According to US8481028B2, “Compositions for preparing a coffee beverage comprising hydrolysed chlorogenic acid” (Nestec S.A., priority 2008, dated 2013):

Key:
[1] = test system: Lactobacillus johnsonii (CNCM I-1225) fresh cells; assay: Treatment of NESCAFE PROTECT with L. johnsonii fresh cells, HPLC of chlorogenic and phenolic acids
Method: (§1) Cells of L. johnsonii (CNCM I-1225) were grown (7.0 E08 cfu/ml) and centrifuged (5000 g, 10 min), the pellets were resuspended in phosphate buffer (50 mM, pH 7.0) at a concentration of 0.61 g/ml. […] Samples were withdrawn at different reaction times, centrifuged (3000 g, 5 min) and filtered through 0.45 μm pore size syringe filters (Millipore SLHA 025 BS) and analysed by HPLC.
A reaction control was run in parallel under the same reaction conditions but without bacteria.
(§2) Coffee samples were diluted to 1% w/w and analyzed by RP-HPLC on a CC 250/4 Nucleosil 100-5-C18 column (Macherey-Nagel). The eluent system was Millipore water, 0.1% TFA and CH3CN at a flow rate of 1 mL/min. The method allowed the simultaneous determination of caffeoyl quinic acids (CQA), feruloyl quinic acids (FQA), di-caffeoyl quinic acids (diCQA), feruloyl quinic acid-lactones, caffeic acid (CA) and ferulic acid (FA) (absorbance at 325 nm) using external standard calibration curves. Results were expressed relative to the reference at time 0 (t0) or to the reference at the same time without bacteria.

[2] = test system: Lactobacillus johnsonii (CNCM I-1225) extract (lysed cells); assay: Treatment of NESCAFE PROTECT with L. johnsonii extract (lysed cells), HPLC; format: biochemical
Method: as §1, with “g/ml. The cells were then lysed using the glass-beads method. 600 μl of cells preparation were put in screw-cap tubes and 600 μl of glass-beads were added at 0° C. The tubes were then put into a Mini-Beadbeater for 1 min of intense shaking, cooled in ice, and put another 1 min in the Mini-Beadbeater.” for “g/ml.”, “min),” for “min) and”
as §2

[3] = test system: spray-dried preparation of Lactobacillus johnsonii (CNCM I-1225); assay: Treatment of NESCAFE PROTECT with spray-dried preparation of L. johnsonii, HPLC
Method: (§3) To this solution, 10 mg of a spray-dried preparation of Lactobacillus johnsonii (CNCM I-1225) (3.3 E9 cfu/g) were added. The mixture was then incubated at 37° C. and samples were withdrawn at different reaction times. After centrifugation (3000 g, 5 min) and filtration (0.45 μm pore size syringe filters, Millipore SLHA 025 BS) the samples were analysed by HPLC.
as §2

[4] = test system: spray-dried preparation of Lactobacillus johnsonii (CNCM I-1225); assay: Treatment of green coffee extract with spray-dried preparation of L. johnsonii, HPLC
Method: as §3, with “30 mg of a dried green coffee extract was dissolved in 1 ml phosphate buffer (50 mM, pH 7.0) or in 1 ml water. To” for “To”, “johnsonii” for “johnsonii (CNCM I-1225)”, “cfu/g) was” for “cfu/g) were”
as §2

[5] = test system: concentrated preparation of Lactobacillus johnsonii (CNCM I-1225); assay: Treatment of NESCAFE with concentrated preparation of L. johnsonii, HPLC
Method: 400 mg of NESCAFE SPECIAL FILTRE® (a dried extract of roasted coffee beans) were dissolved in 1 ml of boiling water and the solution was cooled to 37° C. at room temperature. To 250 μl of this coffee solution, different amounts of concentrated preparation of Lactobacillus johnsonii (50 μl, 100 μl, 350 μl, 750 μl) were added and the volume was adjusted to 1 ml with water. The mixtures were than incubated at 37° C. for 2 h and 4 h. After centrifugation (3000 g, 5 min) and filtration the samples were analysed by HPLC.
as §2

[6] = test system: Lactobacillus johnsonii (CNCM I-1225); assay: Treatment of coffee extracts with bacteria cells (L. johnsonii), HPLC
Method: as §2
(§4) Tested strains were harvested (centrifugation at 5000 g for 10 min) after having well reached stationary phase, corresponding to 16 hours of incubation in culture medium at 37° C. in anaerobic atmosphere without agitation. For a first activation of the strains, frozen stock cultures were inoculated in fresh media and grown overnight. This pre-culture was used to inoculate the culture.
(§5) After culture of bacteria and centrifugation, the pellets were resuspended in phosphate buffer (pH 7.0) at a concentration of 0.61 g/ml. To 200 μl of this cells preparation, 800 μl of a coffee solution (3%) was added and the mixture was incubated at 37° C. for 4 h, 16 h and 24 h.

[7] = test system: Bifidobacterium lactis BB12 (CNCM I-3446); assay: Treatment of coffee extracts with bacteria cells (B. lactis), HPLC
Method: as §2, §4, §5

Chlorogenate esterase = assay: Incubation of coffee extracts with chlorogenate esterase, HPLC; format: biochemical, Aspergillus japonicus
Method: as §2
Chlorogenate esterase (24 U/g), derived from Aspergillus japonicus (Kikkoman, Japan). Tannase from Aspergillus oryzae (Kikkoman, Japan) Preparation of Bacteria Cells
A solution of chlorogenate esterase (25 mg) in 200 μl phosphate buffer (pH 7.0) was added to 800 μl of a coffee solution (3%). The mixture was then incubated at 37° C. for 4 h, 16 h and 24 h. After reaction time, the enzymatic activity was stopped by heat treatment (3 min, 90° C.) and the mixture was filtered before analysis.

[8] = NESCAFE PROTECT + Lactobacillus johnsonii, 4 h
[9] = NESCAFE PROTECT + Lactobacillus johnsonii, 16 h
[10] = NESCAFE PROTECT + Lactobacillus johnsonii, 24 h
[11] = green coffee extract + Lactobacillus johnsonii, 4 h
[12] = green coffee extract + Lactobacillus johnsonii, 16 h
[13] = green coffee extract + Lactobacillus johnsonii, 24 h
[14] = NESCAFE PROTECT + Bifidobacterium lactis, 4 h
[15] = NESCAFE PROTECT + Bifidobacterium lactis, 16 h
[16] = NESCAFE PROTECT + Bifidobacterium lactis, 24 h
[17] = green coffee extract + Bifidobacterium lactis, 4 h
[18] = green coffee extract + Bifidobacterium lactis, 16 h
[19] = green coffee extract + Bifidobacterium lactis, 24 h
[20] = NESCAFE PROTECT + Chlorogenate esterase, 4 h
[21] = NESCAFE PROTECT + Chlorogenate esterase, 16 h
[22] = NESCAFE PROTECT + Chlorogenate esterase, 24 h
[23] = green coffee extract + Chlorogenate esterase, 4 h
[24] = green coffee extract + Chlorogenate esterase, 16 h
[25] = green coffee extract + Chlorogenate esterase, 24 h

COc1cc(/C=C/C(=O)O)ccc1O [FA, ferulic acid]
Concentration in % relative to untreated reference at t = 0 ([1]; 6 h, cell preparation 100 uL): 4594% | Concentration in % relative to untreated reference at t = 0 ([1]; 6 h, cell preparation 350 uL): 7234% | Concentration in % relative to untreated reference at t = 0 ([1]; 6 h, cell preparation 750 uL): 7776% | Concentration in % relative to untreated reference at t = 0 ([1]; 24 h, cell preparation 100 uL): 6691% | Concentration in % relative to untreated reference at t = 0 ([1]; 24 h, cell preparation 350 uL): 8861% | Concentration in % relative to untreated reference at t = 0 ([1]; 24 h, cell preparation 750 uL): 8845% | Concentration in % relative to untreated reference at t = 0 ([2]; 2 h, cell preparation 100.0 uL): 5581% | Concentration in % relative to untreated reference at t = 0 ([2]; 2 h, cell preparation 350.0 uL): 7771% | Concentration in % relative to untreated reference at t = 0 ([2]; 6 h, cell preparation 100.0 uL): 6960% | Concentration in % relative to untreated reference at t = 0 ([2]; 6 h, cell preparation 350.0 uL): 9720% | % relative to untreated control at t = 0 ([3]; 2 h): 1109% | % relative to untreated control at t = 0 ([3]; 6 h): 2183% | % relative to untreated control at t = 0 ([3]; 24 h): 3686% | % relative to untreated control at t = 0 ([4]; 4 h): 961% | % relative to untreated control at t = 0 ([4]; 6 h): 1429% | % relative to untreated control at t = 0 ([4]; 16 h): 1963% | % relative to untreated control at t = 0 ([4]; 24 h): 2432% | % relative to untreated control at t = 0 ([5]; cell amount 50 μL/1 mL, 2 h): 1509% | % relative to untreated control at t = 0 ([5]; cell amount 50 μL/1 mL, 4 h): 786% | % relative to untreated control at t = 0 ([5]; cell amount 100 μL/1 mL, 2 h): 2468% | % relative to untreated control at t = 0 ([5]; cell amount 100 μL/1 mL, 4 h): 1266% | % relative to untreated control at t = 0 ([5]; cell amount 350 μL/1 mL, 2 h): 5327% | % relative to untreated control at t = 0 ([5]; cell amount 350 μL/1 mL, 4 h): 2408% | % relative to untreated control at t = 0 ([5]; cell amount 750 μL/1 mL, 2 h): 7586% | % relative to untreated control at t = 0 ([5]; cell amount 750 μL/1 mL, 4 h): 3281% | % relative to untreated control at t = 0 [6, 8]: 4051% | % relative to untreated control at t = 0 [6, 9]: 5226% | % relative to untreated control at t = 0 [6, 10]: 5504% | % relative to untreated control at t = 0 [6, 11]: 4607% | % relative to untreated control at t = 0 [6, 12]: 7192% | % relative to untreated control at t = 0 [6, 13]: 7597% | % relative to untreated control at t = 0 [7, 14]: 3065% | % relative to untreated control at t = 0 [7, 15]: 4518% | % relative to untreated control at t = 0 [7, 16]: 5144% | % relative to untreated control at t = 0 [7, 17]: 5020% | % relative to untreated control at t = 0 [7, 18]: 6970% | % relative to untreated control at t = 0 [7, 19]: 7105% | % relative to untreated control at t = 0 (Chlorogenate esterase; [20]): 2794% | % relative to untreated control at t = 0 (Chlorogenate esterase; [21]): 5140% | % relative to untreated control at t = 0 (Chlorogenate esterase; [22]): 5518% | % relative to untreated control at t = 0 (Chlorogenate esterase; [23]): 2620% | % relative to untreated control at t = 0 (Chlorogenate esterase; [24]): 5685% | % relative to untreated control at t = 0 (Chlorogenate esterase; [25]): 6293%

caffeoyl quinic acids [CQA]
Concentration in % relative to untreated reference at t = 0 ([1]; 6 h, cell preparation 100 uL): 39% | Concentration in % relative to untreated reference at t = 0 ([1]; 6 h, cell preparation 350 uL): 14% | Concentration in % relative to untreated reference at t = 0 ([1]; 6 h, cell preparation 750 uL): 3% | Concentration in % relative to untreated reference at t = 0 ([1]; 24 h, cell preparation 100 uL): 15% | Concentration in % relative to untreated reference at t = 0 ([1]; 24 h, cell preparation 350 uL): 3% | Concentration in % relative to untreated reference at t = 0 ([1]; 24 h, cell preparation 750 uL): 0% | Concentration in % relative to untreated reference at t = 0 ([2]; 2 h, cell preparation 100.0 uL): 32% | Concentration in % relative to untreated reference at t = 0 ([2]; 2 h, cell preparation 350.0 uL): 10% | Concentration in % relative to untreated reference at t = 0 ([2]; 6 h, cell preparation 100.0 uL): 14% | Concentration in % relative to untreated reference at t = 0 ([2]; 6 h, cell preparation 350.0 uL): 6% | % relative to untreated control at t = 0 ([3]; 2 h): 73% | % relative to untreated control at t = 0 ([3]; 6 h): 67% | % relative to untreated control at t = 0 ([3]; 24 h): 32% | % relative to untreated control at t = 0 ([4]; 4 h): 77% | % relative to untreated control at t = 0 ([4]; 6 h): 69% | % relative to untreated control at t = 0 ([4]; 16 h): 58% | % relative to untreated control at t = 0 ([4]; 24 h): 50% | % relative to untreated control at t = 0 ([5]; cell amount 50 μL/1 mL, 2 h): 92% | % relative to untreated control at t = 0 ([5]; cell amount 50 μL/1 mL, 4 h): 76% | % relative to untreated control at t = 0 ([5]; cell amount 100 μL/1 mL, 2 h): 80% | % relative to untreated control at t = 0 ([5]; cell amount 100 μL/1 mL, 4 h): 60% | % relative to untreated control at t = 0 ([5]; cell amount 350 μL/1 mL, 2 h): 46% | % relative to untreated control at t = 0 ([5]; cell amount 350 μL/1 mL, 4 h): 33% | % relative to untreated control at t = 0 ([5]; cell amount 750 μL/1 mL, 2 h): 25% | % relative to untreated control at t = 0 ([5]; cell amount 750 μL/1 mL, 4 h): 17% | % relative to untreated control at t = 0 [6, 8]: 33% | % relative to untreated control at t = 0 [6, 9]: 13% | % relative to untreated control at t = 0 [6, 10]: 13% | % relative to untreated control at t = 0 [6, 11]: 42% | % relative to untreated control at t = 0 [6, 12]: 15% | % relative to untreated control at t = 0 [6, 13]: 12% | % relative to untreated control at t = 0 [7, 14]: 97% | % relative to untreated control at t = 0 [7, 15]: 81% | % relative to untreated control at t = 0 [7, 16]: 80% | % relative to untreated control at t = 0 [7, 17]: 96% | % relative to untreated control at t = 0 [7, 18]: 79% | % relative to untreated control at t = 0 [7, 19]: 74% | % relative to untreated control at t = 0 (Chlorogenate esterase; [20]): 5% | % relative to untreated control at t = 0 (Chlorogenate esterase; [21]): 3% | % relative to untreated control at t = 0 (Chlorogenate esterase; [22]): 3% | % relative to untreated control at t = 0 (Chlorogenate esterase; [23]): 3% | % relative to untreated control at t = 0 (Chlorogenate esterase; [24]): 2% | % relative to untreated control at t = 0 (Chlorogenate esterase; [25]): 2%
